Experimental data as given in patent US20180279615A1 (priority 2015, published 2018).

Test system: Botrytis cinerea
Assay: Activity against the grey mold Botrytis cinerea in the microtiterplate test
Assay type: cell-based
Settings: comparative examples, measured at 405 nm 7 days after inoculation

Row | SMILES | Growth (%) at 32 ppm [%]
1 | Cc1cc(C2=NC(C)(C)Cc3ccccc32)cnc1C | 51
2 | Cc1cc(C2=NC(C)(C)C(C)c3ccccc32)cnc1C (centres unmarked) [I-1, 1-(5,6-dimethyl-3-pyridyl)-3,3,4-trimethyl-4H-isoquinoline] | 0
